Source: paper PMC9492542, “Brain-restricted mTOR inhibition with binary pharmacology” (Nature, 2022)
Where “and” joins values, the source holds several entries; their conditions need not be identical. Identical values can stand only once. Like-named read-outs stand apart in the source and are kept apart here.

Columns and labels:
[1] = tested on: human PBMCs; test: Proliferation of anti-CD3/anti-CD28 stimulated PBMCs (120 h); format: cell-based; set-up: PBMC cell proliferation: unit not given here
[2] = tested on: GBM43; test: Orthotopic intracranial GBM43-luciferase patient-derived glioblastoma xenograft; details: GBM43-Luc
[3] = target: T1, mTOR (Homo sapiens, UniProt P42345); test: In vitro mTOR kinase inhibition assay (SelectScreen Z'-LYTE), with or without 10 µM FKBP12; format: biochemical; details: for residual kinase activity (mTOR): listed as RL-1
T1 construct: We performed in vitro kinase assays with purified mTOR protein; purchased SelectScreen Services (Thermo Fisher Scientific)
T1 sequence (P42345 1360-2549 limits assumed): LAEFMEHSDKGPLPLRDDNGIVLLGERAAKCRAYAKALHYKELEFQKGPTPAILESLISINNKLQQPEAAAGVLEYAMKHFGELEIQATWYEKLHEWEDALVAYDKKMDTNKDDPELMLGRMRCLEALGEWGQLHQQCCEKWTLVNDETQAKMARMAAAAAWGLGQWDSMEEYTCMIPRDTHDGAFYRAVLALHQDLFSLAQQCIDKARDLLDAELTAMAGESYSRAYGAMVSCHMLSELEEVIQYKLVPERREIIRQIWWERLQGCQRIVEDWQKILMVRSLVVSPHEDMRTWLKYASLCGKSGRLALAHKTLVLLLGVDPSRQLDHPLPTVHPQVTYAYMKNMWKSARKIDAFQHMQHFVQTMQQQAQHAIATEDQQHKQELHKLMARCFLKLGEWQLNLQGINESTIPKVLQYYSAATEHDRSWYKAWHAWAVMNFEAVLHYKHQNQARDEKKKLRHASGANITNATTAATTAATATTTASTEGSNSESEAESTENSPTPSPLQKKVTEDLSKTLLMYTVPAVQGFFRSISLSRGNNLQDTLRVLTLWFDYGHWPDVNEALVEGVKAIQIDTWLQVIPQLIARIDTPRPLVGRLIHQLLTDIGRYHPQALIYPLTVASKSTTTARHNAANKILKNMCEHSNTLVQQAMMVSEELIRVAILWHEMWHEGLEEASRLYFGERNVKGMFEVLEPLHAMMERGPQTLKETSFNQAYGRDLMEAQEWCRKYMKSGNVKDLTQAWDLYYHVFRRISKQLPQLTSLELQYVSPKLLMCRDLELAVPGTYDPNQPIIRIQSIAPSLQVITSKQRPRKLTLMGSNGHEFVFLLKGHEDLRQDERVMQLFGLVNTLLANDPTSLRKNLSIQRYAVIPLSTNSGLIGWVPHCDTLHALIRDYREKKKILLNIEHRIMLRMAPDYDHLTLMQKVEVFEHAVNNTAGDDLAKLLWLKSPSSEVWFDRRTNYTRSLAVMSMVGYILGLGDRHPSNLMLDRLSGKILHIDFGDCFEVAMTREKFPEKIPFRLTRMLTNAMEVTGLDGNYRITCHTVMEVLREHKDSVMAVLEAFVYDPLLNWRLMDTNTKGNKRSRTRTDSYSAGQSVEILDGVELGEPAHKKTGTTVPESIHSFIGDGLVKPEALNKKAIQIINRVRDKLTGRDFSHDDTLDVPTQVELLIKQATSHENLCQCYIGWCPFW
Procedure: In vitro kinase inhibition assays were performed by SelectScreen Services (Thermo Fisher Scientific) using either Z’-LYTE (mTOR, Src, Csk, EGFR, HER2 and HGK), Adapta (LRRK2) or LanthaScreen (DDR2) assay format (standardized protocols can be accessed on the SelectScreen website: https://www.thermofisher.com/us/en/home/products-and-services/services/custom-services/screening-and-profiling-services/selectscreen-profiling-service/selectscreen-kinase-profiling-service.html. When indicated, recombinant FKBP12 protein was added to the assay mixture to a final concentration of 10 µM.

`CO[C@H]1C[C@@H]2CC[C@@H](C)[C@@](O)(O2)C(=O)C(=O)N2CCCC[C@H]2C(=O)O[C@H]([C@H](C)C[C@@H]2CC[C@@H](OCCOCc3cn(CCOCCOCCOCCOCCOCCOCCOCCOCCC(=O)NCCCCn4nc(-c5ccc6oc(N)nc6c5)c5c(N)ncnc54)nn3)[C@H](OC)C2)CC(=O)[C@H](C)/C=C(\C)[C@@H](O)[C@@H](OC)C(=O)[C@H](C)C[C@H](C)/C=C/C=C/C=C/1C` [RapaLink-1] was tested. Which PBMC cell proliferation ([1]; 33.3333 nM RapaLink-1, +10 μM RapaBlock) did it give?
The PBMC cell proliferation was 64.4 and 70.2 and 62.9.

What about the PBMC cell proliferation ([1]; 33.3333 nM RapaLink-1, No RapaBlock) of the same compound?
The PBMC cell proliferation was 20.6 and 20 and 17.2.

What about the PBMC cell proliferation ([1]; 100 nM RapaLink-1, +10 μM RapaBlock) of the same compound?
Its PBMC cell proliferation is 39.8 and 43.7 and 38.7.

What about the PBMC cell proliferation ([1]; 100 nM RapaLink-1, No RapaBlock) of the same compound?
The PBMC cell proliferation was 17.8 and 16.4 and 15.6.

And the “inhibition of PBMC proliferation” value ([1]; 5 days)?
The value was “potently inhibited proliferation of PBMCs at nanomolar concentrations”.

What about the Mouse weight ([2]; day 0, individual mice) of the same compound?
Its Mouse weight is 23.5 g and 21.9 g and 22.3 g and 22.1 g and 19.3 g and 21.6 g.

And the “Tumor size (measured by bioluminescence)” value ([2]; day 0, individual mice)?
Its value is 9520000 and 3020000 and 1670000 and 519000 and 248000 and 80200.

And the Mouse weight ([2]; day 4, individual mice)?
The Mouse weight was 22.9 g and 20.8 g and 22.2 g (2×) and 23.1 g and 20.1 g.

And the “Tumor size (measured by bioluminescence)” value ([2]; day 4, individual mice)?
The value was 1310000 and 940000 and 1040000 and 482000 and 175000 and 141000.

And the Mouse weight ([2]; day 7, individual mice)?
Its Mouse weight is 22.7 g and 19.8 g and 21.2 g and 20.8 g and 19.6 g and 22.9 g.

What about the “Tumor size (measured by bioluminescence)” value ([2]; day 7, individual mice) of the same compound?
The value was 121000000 and 131000000 and 102000000 and 25200000 and 4850000.

What about the Mouse weight ([2]; day 10, individual mice) of the same compound?
Its Mouse weight is 20.5 g and 20.2 g and 21.6 g and 20.6 g and 19.4 g and 22 g.

And the “Tumor size (measured by bioluminescence)” value ([2]; day 10, individual mice)?
The value was 686000000 and 671000000 and 515000000 and 1100000000 and 3050000000 and 2140000.

What about the Mouse survival ([2]; individual mice, listed as RL-1) of the same compound?
Its Mouse survival is 17 days and 18 days and 19 days.

What about the “residual kinase activity (mTOR)” value ([3]; 0.00495 nM drug, +FKBP) of the same compound?
The value was 99.

And the remaining activity at 4.95 pM ([3]; 0.00495 nM drug, +FKBP, read-out: residual kinase activity (mTOR))?
The remaining activity at 4.95 pM was 95%.

What about the “residual kinase activity (mTOR)” value ([3]; 0.00495 nM drug, no FKBP) of the same compound?
The value was 100.

And the remaining activity at 4.95 pM ([3]; 0.00495 nM drug, no FKBP, read-out: residual kinase activity (mTOR))?
The remaining activity at 4.95 pM was 96%.

And the “residual kinase activity (mTOR)” value ([3]; 0.0152 nM drug, +FKBP)?
Its value is 103.

What about the remaining activity at 15.2 pM ([3]; 0.0152 nM drug, +FKBP, read-out: residual kinase activity (mTOR)) of the same compound?
Its remaining activity at 15.2 pM is 98%.

What about the “residual kinase activity (mTOR)” value ([3]; 0.0152 nM drug, no FKBP) of the same compound?
The value was 101.

And the remaining activity at 15.2 pM ([3]; 0.0152 nM drug, no FKBP, read-out: residual kinase activity (mTOR))?
Its remaining activity at 15.2 pM is 100%.

What about the “residual kinase activity (mTOR)” value ([3]; 0.0457 nM drug, +FKBP) of the same compound?
The value was 103.

What about the remaining activity at 45.7 pM ([3]; 0.0457 nM drug, +FKBP, read-out: residual kinase activity (mTOR)) of the same compound?
Its remaining activity at 45.7 pM is 102%.

What about the “residual kinase activity (mTOR)” value ([3]; 0.0457 nM drug, no FKBP) of the same compound?
Its value is 99.

What about the remaining activity at 45.7 pM ([3]; 0.0457 nM drug, no FKBP, read-out: residual kinase activity (mTOR)) of the same compound?
Its remaining activity at 45.7 pM is 101%.

What about the “residual kinase activity (mTOR)” value ([3]; 0.137 nM drug, +FKBP) of the same compound?
The value was 99.

What about the remaining activity at 0.000137 µM ([3]; 0.137 nM drug, +FKBP, read-out: residual kinase activity (mTOR)) of the same compound?
The remaining activity at 0.000137 µM was 101%.

What about the “residual kinase activity (mTOR)” value ([3]; 0.137 nM drug, no FKBP) of the same compound?
Its value is 96.

What about the remaining activity at 0.000137 µM ([3]; 0.137 nM drug, no FKBP, read-out: residual kinase activity (mTOR)) of the same compound?
Its remaining activity at 0.000137 µM is 97%.

What about the remaining activity at 0.000412 µM ([3]; 0.412 nM drug, +FKBP, read-out: residual kinase activity (mTOR)) of the same compound?
The remaining activity at 0.000412 µM was 97%.

And the “residual kinase activity (mTOR)” value ([3]; 0.412 nM drug, no FKBP)?
The value was 92.

What about the remaining activity at 0.000412 µM ([3]; 0.412 nM drug, no FKBP, read-out: residual kinase activity (mTOR)) of the same compound?
Its remaining activity at 0.000412 µM is 95%.

What about the “residual kinase activity (mTOR)” value ([3]; 1.23 nM drug, +FKBP) of the same compound?
Its value is 86.

What about the remaining activity at 0.00123 µM ([3]; 1.23 nM drug, +FKBP, read-out: residual kinase activity (mTOR)) of the same compound?
The remaining activity at 0.00123 µM was 89%.

And the “residual kinase activity (mTOR)” value ([3]; 1.23 nM drug, no FKBP)?
Its value is 83.

What about the remaining activity at 0.00123 µM ([3]; 1.23 nM drug, no FKBP, read-out: residual kinase activity (mTOR)) of the same compound?
Its remaining activity at 0.00123 µM is 87%.

What about the “residual kinase activity (mTOR)” value ([3]; 11.1 nM drug, +FKBP) of the same compound?
The value was 17.

What about the remaining activity at 0.0111 µM ([3]; 11.1 nM drug, +FKBP, read-out: residual kinase activity (mTOR)) of the same compound?
The remaining activity at 0.0111 µM was 14%.

And the remaining activity at 0.0111 µM ([3]; 11.1 nM drug, no FKBP, read-out: residual kinase activity (mTOR))?
The remaining activity at 0.0111 µM was 15%.

What about the “residual kinase activity (mTOR)” value ([3]; 33.3 nM drug, +FKBP) of the same compound?
The value was 4.

What about the remaining activity at 0.0333 µM ([3]; 33.3 nM drug, +FKBP, read-out: residual kinase activity (mTOR)) of the same compound?
The remaining activity at 0.0333 µM was 2%.

And the “residual kinase activity (mTOR)” value ([3]; 33.3 nM drug, no FKBP)?
Its value is 2.

And the remaining activity at 0.0333 µM ([3]; 33.3 nM drug, no FKBP, read-out: residual kinase activity (mTOR))?
The remaining activity at 0.0333 µM was 3%.

What about the “residual kinase activity (mTOR)” value ([3]; 100 nM drug, +FKBP) of the same compound?
Its value is 2.

What about the remaining activity at 0.1 µM ([3]; 100 nM drug, +FKBP, read-out: residual kinase activity (mTOR)) of the same compound?
The remaining activity at 0.1 µM was 3%.

What about the “residual kinase activity (mTOR)” value ([3]; […] drug, +FKBP) of the same compound?
Its value is 57.

And the remaining activity at […] ([3]; […] drug, +FKBP, read-out: residual kinase activity (mTOR))?
The remaining activity at […] was 55%.

And the “residual kinase activity (mTOR)” value ([3]; […] drug, no FKBP)?
The value was 54.

And the remaining activity at […] ([3]; […] drug, no FKBP, read-out: residual kinase activity (mTOR))?
The remaining activity at […] was 56%.

And the “IC50 for mTOR kinase activity” value ([3]; purified mTOR, whether FKBP12 was present)?
Its value is “identical half-maximal inhibitory concentration (IC50) values as MLN0128”.
